Data from patent US6649614B2, “Use of a NK-1 receptor antagonist and an antidepressant and/or an anti-anxiety agent for treatment of depression or anxiety” (Merck Sharp & Dohme Ltd., priority 1996, dated 2003).

Columns and labels:
guinea-pig pups = test: Separation-induced vocalisation in guinea-pig pups; format: in vivo; settings: for attenuation of separation-induced vocalisations compared with baseline: 30 minutes before isolation
Excerpt: ASSAY 2: Separation-induced Vocalisation
Male and female guinea-pigs pups are housed in family groups with their mothers and littermates throughout the study. Experiments are commenced after weaning when the pups are at least 2 weeks old. Before entering an experiment, the pups may be screened to ensure that a vigorous vocalisation response is reproducibly elicited following maternal separation. The pups are placed individually in an observation cage (approximately 55 cm×39 cm×19 cm) in a room physically isolated from the home cage for approximately 15 minutes and the duration and/or number of vocalisation during this baseline period is recorded. […] The duration and/or number of vocalisation on drug treatment days may be expressed as a percentage of the pre-treatment baseline value for each animal or compared with values obtained in vehicle-treated animals. The same subjects may be retested once weekly for up to 6 weeks.

gerbils = test: Gerbil foot-tapping (CNS penetration) assay; format: in vivo, Mongolian gerbil (Meriones unguiculatus); settings: for gerbil foot-tapping (5 mins.) ID50 / gerbil foot-tapping (24 hrs.) ID50: i.v.; for gerbil foot-tapping (5 mins.) ID50: 5 mins. before central NK-1 agonist challenge; for gerbil foot-tapping (24 hrs.) ID50: 24 hrs. before central NK-1 agonist challenge
Excerpt: ASSAY 3: Gerbil Foot-tapping (CNS Penetration) Assay
CNS-penetrant NK-1 receptor antagonists for use in the present invention can be identified by their ability to inhibit foot tapping in gerbils induced by anxiogenic agents (such as pentagastrin) or central infusion of NK-1 receptor agonists such as GR73632, or caused by aversive stimulation such as foot shock or single housing, based on the method of Rupniak & Williams, Eur. J. Pharmacol., 1994, 265, 179.
Male or female Mongolian gerbils (35-70 g) are anaesthetised by inhalation of an isoflurane/oxygen mixture to permit exposure of the jugular vein in order to permit administration of test compounds or vehicle in an injection volume of approximately 5 ml/kg i.v. Alternatively, test compounds may be administered orally or by subcutaneous or intraperitoneal routes. A skin incision is then made in the midline of the scalp to expose the skull.

ferrets = test: Ferret emesis (cisplatin-induced); format: in vivo; settings: p.o., 60 minutes before cisplatin 10 mg/kg i.v.
Excerpt: ASSAY 4: Ferret Emesis […]

C[C@@H](O[C@H]1OCCN(Cc2n[nH]c(=O)[nH]2)[C@H]1c1ccc(F)cc1)c1cc(C(F)(F)F)cc(C(F)(F)F)c1 [2-(R)-(1-(R)-(3,5-bis(trifluoromethyl)phenyl)ethoxy)-3-(S)-(4-fluorophenyl)-4-(3-(5-oxo-1H,4H-1,2,4-triazolo)methyl)morpholine]
guinea-pig vocalisation ID50 (guinea-pig pups; p.o., 4 hrs. pretreatment): ID50 = 0.73 mg/kg p.o. | gerbil foot-tapping (5 mins.) ID50 (gerbils): ID50 = 0.36 mg/kg i.v. | gerbil foot-tapping (24 hrs.) ID50 (gerbils): ID50 = 0.33 mg/kg i.v. | ID90 in the ferret emesis assay (ferrets): < 3 mg/kg p.o.

C[C@@H](O[C@H]1OCCN(Cc2nn[nH]c2CN(C)C)[C@H]1c1ccccc1)c1cc(C(F)(F)F)cc(C(F)(F)F)c1 [Test Compound A, 2-(R)-(1-(R)-(3,5-bis(trifluoromethyl)phenyl)ethoxy)-4-(5-(dimethylamino)methyl-1,2,3-triazol-4-yl)methyl-3-(S)-phenylmorpholine]
attenuation of separation-induced vocalisations compared with baseline (guinea-pig pups; 0.25 mg/kg s.c. alone): approximately 25% | guinea-pig vocalisation ID50 (guinea-pig pups; s.c.): ID50 = 0.5 mg/kg s.c. | gerbil foot-tapping (5 mins.) ID50 (gerbils): ID50 = 0.12 mg/kg i.v. | gerbil foot-tapping (24 hrs.) ID50 (gerbils): ID50 = 0.17 mg/kg i.v.

C[C@@H](O[C@@H]1OCCN(Cc2nn[nH]c2CN(C)C)[C@@H]1c1ccccc1)c1cc(C(F)(F)F)cc(C(F)(F)F)c1 [Test Compound B, 2-(S)-(1-(R)-(3,5-bis(trifluoromethyl)phenyl)ethoxy)-4-(5-(dimethylamino)methyl-1,2,3-triazol-4-yl)methyl-3-(R)-phenylmorpholine]
attenuation of separation-induced vocalisations when administered alone (guinea-pig pups; 0.25 mg/kg s.c. alone): failure | potentiation of the inhibitory effect of buspirone on separation-induced vocalisations (guinea-pig pups; 0.25 mg/kg s.c. with buspirone 0.25 mg/kg s.c.): failure | potentiation of the inhibitory effect of fluoxetine on separation-induced vocalisations (guinea-pig pups; 0.25 mg/kg s.c. with fluoxetine 2 mg/kg i.p.): failure

O=C1CC2(CCCC2)CC(=O)N1CCCCN1CCN(c2ncccn2)CC1 [buspirone, reference compound]
attenuation of separation-induced vocalisations compared with baseline (guinea-pig pups; 0.25 mg/kg s.c. alone): approximately 25% | guinea-pig vocalisation ID50 (guinea-pig pups; s.c.): 0.5 mg/kg s.c.

CN1C(=O)CN=C(c2ccccc2)c2cc(Cl)ccc21 [diazepam, reference compound]
guinea-pig vocalisation ID50 (guinea-pig pups; s.c.): 0.7 mg/kg s.c.

CNCCC(Oc1ccc(C(F)(F)F)cc1)c1ccccc1 (stereo not drawn) [fluoxetine, reference compound]
attenuation of separation-induced vocalisations compared with baseline (guinea-pig pups; 2 mg/kg i.p. alone): approximately 25% | guinea-pig vocalisation ID50 (guinea-pig pups; i.p.): 2.7 mg/kg i.p.

CN(C)CCCN1c2ccccc2CCc2ccccc21 [imipramine, reference compound]
guinea-pig vocalisation ID50 (guinea-pig pups; s.c.): 5.4 mg/kg s.c. | foot-tapping ID50 (gerbils; s.c., foot-tapping induced by substance P): 3.8 mg/kg s.c.
